Data taken from patent US20060025448A1, “Hair growth stimulators” (CADILA HEALTHCARE LIMITED, priority 2004, published 2006).

What was measured:
[1] = tested on: male C57BL/6J mice; assay: Effect on hair growth (bald area) in high-fat diet fed male C57BL/6J mice; assay type: in vivo; conditions: 10 mg/kg orally; for growth of body hair (in words): high-fat diet fed male C57BL/6 mice, 28 days
Description: (§1) The C57BL/6 mice were housed on a lightdark cycle in a room with temperature (22±2° C.) and humidity control. They were fed either a high-fat diet (HFD) (49% fat, 18% protein, 33% carbohydrate) or a standard mouse diet (STD) (8% fat, 19% protein, 73% carbohydrate). Six-week-old C57BL/6J male mice were given HFD or STD diets for 17 wks before drug treatment started. […] After this, mice were weighed and treated as per the following three groups, while the diet treatment continued.
(§2) High-fat diet fed & vehicle treated (HFD-V), • High-fat diet fed & treated with 10 mg/kg Compound 2 (HFD-R 10 mg) • High-fat diet fed & treated with 10 mg/kg Compound 1 (HD-ZY 10 mg) • Compound 1 and Compound 2 were administered orally in distilled water with 0.1% Tween 80 one hour before the onset of the dark phase.
(§3) The animals were observed daily. Body weights were recorded daily, and the animals were photographed on 28th day on the back, The results are mentioned in Table 1 and Table 2.

[2] = Effect on body weight in high-fat diet fed male C57BL/6J mice; assay type: in vivo; conditions: for effect on body weight (in words): high-fat diet fed male C57BL/6 mice
Description: as §1, §2, §3

Cc1c(C(=O)NN2CCCCC2)nn(-c2ccc(Cl)cc2Cl)c1-c1ccc(Cl)s1.Cl [Compound 1, Hydrochloride salt of 5-(5-Chloro-thiophen-2-yl)-1-(2,4-dichloro-phenyl)-4-methyl-1H-pyrazole-3-caxboxylic acid piperidin-1-ylamide]
bald area (where hair growth or pigmentation has not appeared), Area (Mean ± Standard Error Mean) ([1]; high-fat diet fed male C57BL/6J mice, after 28th day of dosing, n = 6): 0.011 ± 0.223 cm^2 | growth of body hair (in words) ([1]; 10 mg/kg): significantly enhanced the growth of body hair | growth of body hair (in words) ([1]; listed as compound 1, 10 mg/kg): able to stimulate hair growth | Change in Body Weight in 28 days versus Day 0 ([2]; high-fat diet fed male C57BL/6J mice, 10 mg/kg orally, 28 days, n = 6): -1.7 ± 0.5 g | Body Weight on Day 28 ([2]; high-fat diet fed male C57BL/6J mice, 10 mg/kg orally, Day 28, n = 6): 26.9 ± 1.1 g | Change in Body Weight versus HFD-V ([2]; high-fat diet fed male C57BL/6J mice, 10 mg/kg orally, versus vehicle group, n = 6): -3.3 ± 1.8 g | Body Weight on Day 0 ([2]; high-fat diet fed male C57BL/6J mice, Day 0 (baseline before treatment), n = 6): 29.2 ± 1.1 g | effect on body weight (in words) ([2]; 10 mg/kg orally, 28 days, 10 mg/kg): decrease in body weight | effect on body weight (in words) ([2]; 10 mg/kg orally, 28 days, listed as compound 1, 10 mg/kg): decreasing body weight
